Entries after “also recorded” stand apart in the source; their conditions may differ. Read-outs that look alike come from different tables or passages of the source.
How the values were obtained:
[1] = test system: CD34+ cells isolated from human umbilical CB; type: cell-based
Experimental: Megakaryocytes derived from CB in vitro are usually smaller than megakaryocytes derived from bone marrow or mobilized peripheral blood from adults. Small megakaryocyte size may contribute to delayed platelet engraftment when cord blood is used for bone marrow transplantation. To test whether 616452 is able to increase fetal/neonatal megakaryocyte size and ploidy, CD34+ cells isolated from human umbilical CB were cultured in StemSpan SFEM containing SCF, TPO and Flt-3 Ligand. CB CD34+ cells in the presence of TPO after 4 or 8 day culture, were morphologically consistent of a relative homogenous population of small cells (FIG. 19A) and megakaryocytic features such as large nuclear size and cytoplasmic mass were hardly detectable.
One of the unique characteristics of megakaryocytes is the ploidy development of their nuclei, which can be easily measured using propidium iodide (PI), a fluorescent intercalating agent that binds to nucleic acids. Megakaryocyte (Mk) ploidy correlates well with their maturation and platelet production. […] Out of 10,000 events, the control cells only elicited only 1 cell with a ploidy of 16N and nothing thereon greater (FIG. 20A).

C57BL/6J mice given 5-FU = test system: C57BL/6J mice given 5-FU
Experimental: FIG. 25. […] Fifteen 8-week old mice were given IP injections of 5-FU (250 mg/kg) on day 0. Complete blood counts (CBCs) were done on day 2, 4, 6, 9, and 12. 616452 (10 mg/kg) was introduced via IP injections on day 5, 7 and 9. The above data is a representative sample of the overall experiment. Data values from day 4 are not included.
The inventors used C57BL/6J mice to administrate with SFU, a chemotherapy agent (150 mg/kg, intraperitoneal injection). Peripheral blood (100 ul each) from injected mice is collected for assessment of the peripheral blood count using a hematology analyzer.
616452 was introduced to eight of the mice at this point and was injected every other day for a total of three doses.

[2] = test system: CD41+ cells sorted from cultured CB CD34+ cells
Experimental: FIG. 22. […] CB CD34+ cells were cultured with TPO, SCF, IL-3 for 7 days prior for CD41 selection by flow cytometry.
Cells were isolated for nestin (NSCs) and FLK-1 (hemangioblasts) before further differentiation. For cell sorting, cells were centrifuged for 5 minutes at 200 G at 4° C. and resuspended with 25 μl of CD41-FITC antibody for 30 minutes on ice. Cells are then washed gently with PBS and centrifuged for 5 minutes at 200 G at 4° C. Cells are then suspended at a concentration of 10^6 cells/ml of PBS containing 2% FBS. Cells are sorted via FACS Aria.
To test this issue and the extent of megakaryocytic population in response to the chemical induction, we cultured HUBC CD34^+ cells for 12-14 days in a media specific to megakaryocyte expansion (Nikougoftar Zarif, M., et al., Cell journal 13:173-178 (2011)). The cells were labeled with a conjugated CD41 antibody and sorted by flow cytometry sorting.

CB CD34+ cells = test system: CB CD34+ cells
Experimental: FIG. 24. […] On the right is a heat map illustrating the values of expression in terms of fold increase over controls. Green is indicative of up-regulation while red is down-regulation.
Cells were analyzed via Qiagen's PAHS-054Z hematopoiesis array containing 81 genes.

CD41− cells = details: same conditions as CD41+ cells
Experimental: CD41− cells were also cultured under the same conditions with the control being induced using TPO and DMSO.

[3] = test system: CD34+ cells isolated from peripheral blood of G-CSF-mobilized donors; experiment: Ex vivo culture of mobilized peripheral blood CD34+ cells with compounds, CD34/CD38 flow cytometry; type: cell-based, human; details: minimal cytokines
Experimental: CD34+ cells were isolated from cord blood or from peripheral blood of G-CSF-mobilized adult donors and cultured as follows. Mononuclear cells (MNCs) were isolated using a simple red blood cell lysis (15 minutes at room temperature using BD PharmLyse) or using Ficoll-Paque density gradient centrifugation (Jaatinen and Laine, Current Protocols Stem Cell Biol. 1:2A.1.1-2A.1.4. (2007)). The cells were then incubated with MACS CD34+ Microbead kit (Miltenyi Biotec, Auburn, Calif.) and run through a magnetic column resulting in selection for CD34+ cells. […] Human cortex neural stem cell (hcx NSC) cells were purchased from Millipore.
CD34+ cells were cultured in […] medium ([…] Technologies, Vancouver, BC, Canada) supplemented with 10% FBS, 100 ng/ml hSCF (human stem cell factor), 100 ng/ml hTPO (human thrombopoietin), 100 ng/ml hFLT-3 ligand (Human Fms-related Tyrosine Kinase 3) (Peprotech, Rocky Hill, N.J., USA) and 100 U/ml penicillin/streptomycin (Gibco). Human cortex Neural Progenitor Cell line (hcx NSC) was maintained in ReNcell medium: ReNcell NSC Maintenance medium (Millipore) supplemented with 20 ng/ml human EGF, 20 ng/ml human bFGF (Peprotech) and 100 U/ml penicillin/streptomycin. For expansion of cells targeted for cell sorting, we used the same media containing a different cytokine cocktail of 100 ng/ml SCF, TPO and 10 ng/ml IL-3.
(§1) Cells were centrifuged for 5 minutes at 200 G at 4° C. Cells were resuspended with CD34, 38 and/or 41 conjugated antibodies for 30 minutes on ice. Cells were then washed with 2 ml of PBS and centrifuged for 5 minutes at 200 G at 4° C. The final pellet was resuspended using 300 μl of 2% formalin.
CD34+ cells isolated from peripheral blood of G-CSF-mobilized donors were cultured for 11 days with minimal cytokines and the 4 chemical cocktail (C6FZ). […] The population bearing CD34+/CD38− is associated with long-term repopulating HSCs.
CD34+ cells isolated from the peripheral blood of G-CSF-mobilized donors were next cultured for 11 days with minimal cytokines and the individual compounds, C, 6, F and Z (FIG. 13).

bone marrow CD34+ cells = test system: bone marrow CD34+ cells
Experimental: 616452 (also called RepSox), was purchased separately from Biovision and Millipore. […] A fresh aliquot of the chemical was used at every media change and the final concentration in media is 10 μM.
as §1
Flow cytometry study was used to analyze the immunophenotype of cultured cells. As mature, large megakaryocytes may not be detectable by flow cytometry, bone marrow CD34+ cells were cultured for 4 days in order to detect younger, small megakaryocytes. […] However, flow analysis of megakaryocytes is known to be misleading due to the sheer size of the megakaryocytes, which can have a diameter ranging from 20 um to 120 um.

[4] = greater dose vs 10 μM standard (FIG. 20B)
[5] = Giemsa-Wright staining (FIG. 19B)

For `Cc1cccc(-c2n[nH]cc2-c2ccc3ncccc3n2)n1` [compound 616452, 2-[3-(6-methyl-2-pyridinyl)-1H-pyrazol-4-yl]-1,5-naphthyridine], the “cluster formation at high concentrations” value [1] was “no clusters in 4× concentrations or higher”, the “culture composition by 8 days” value [1] was “predominately composed of megakaryocytes” and the “change in number of 8N, 16N and 32N cells between 8 and 12 days of induction” value ([1]; 10 μM) was “nearly doubled”. For the same molecule, the “days of culture until appearance of large megakaryocyte-like cells” value ([1]; 10 μM) was 4 days, the “growth of the cells relative to control” value ([1]; 10 μM (1×)) was 25-50% and the “megakaryocytic features (large nuclear size, cytoplasmic mass)” value ([1]; 4 or 8 day culture with TPO) was “megakaryocytes with these features were easily observed”. For the same molecule, the “increase of CD41 expression compared to control” value ([1]; 4 days induction, flow cytometry) was 27%, the “number of cells with greater ploidy” value ([1]; 8 days induction) was “drastically increased number of cells with greater ploidy” and the “cells of 16N ploidy out of 10,000 events” value ([1]; 8 days induction, PI staining) was “over 100 cells”. The “CD34+CD41+ population” value ([1]; flow analysis (FIG. 19C)) was “an increase in the CD34^+ CD41^+ population”, the “increase of the CD41+ population” value ([1]; flow analysis, 5 days induction (FIG. 19C)) was 25-40% and the “fold increase over the standard in 8N cells” value [1, 4] was 1.68 fold. The “fold increase over the standard in 16N cells” value [1, 4] was 2.5 fold, the “fold increase over the standard in 32N cells” value [1, 4] was 6 fold and the cell death ([1]; human, 48 h, 100 μM) was “all the cells died within 48 hours”. The “fold increase of 4N cells over control” value ([1]; time dependence study) was 5 fold, the “fold increase of 8N cells over control” value ([1]; time dependence study) was 30 fold and the “fold increase of 16N cells over control” value ([1]; time dependence study) was 80 fold. For the same molecule, the “platelet counts by day 12” value (C57BL/6J mice given 5-FU; 10 mg/kg every other day, three doses, after 5-FU) was “almost twice as many platelets as normal mice”, the “white blood cell count” value (C57BL/6J mice given 5-FU; chemotherapy treated mice) was “significant improvement or recovery of the white blood cell count” and the “platelet counts in mice not given 5-FU” value (C57BL/6J mice given 5-FU; mouse, in vivo) was “little to no change”. The “time until cells began to increase their size” value [2] was ≤ 2 days, the “cells of 8N out of 10,000 events” value ([2]; 8 days of induction) was 2018 cells and the “cells of 16N out of 10,000 events” value ([2]; 8 days of induction) was 585 cells. The “cells of 32N or greater out of 10,000 events” value ([2]; 8 days of induction) was 86 cells, the “fold increase in 8N” value ([2]; 8 days, vs DMSO control) was 30 fold and the “fold increase in the number of 4N” value ([2]; 8 days, vs DMSO control) was 4.5 fold. The “cells positive in CD41 live cell stain” value ([2]; after 8 days of induction) was 95%, the cluster size ([2]; around day 4) was 5-15 cells and the cluster size ([2]; by day 6) was 25-50 cells. The “cells appearing large in size by eye” value ([2]; day 6) was “approximately 80%”, the highest ploidy reached ([2]; within 8 days of culture) was ≤ 64N and the “PF4 expression on day 4 compared to that on day 2” value (CB CD34+ cells) was “more than 11 fold”. For the same molecule, the genes down-regulated (CB CD34+ cells; day 2 of induction) was “one”, the genes down-regulated (CB CD34+ cells; day 4 of induction) was “four” and the ploidy development (CD41− cells) was “slight increase in ploidy”. For the same molecule, the “expansion of CD34+ cells” value ([3]; 5 days, 10 μM) was “rapidly expanded the CD34+ cells”, the “effect on CD34+CD38+ and CD34+CD38− populations” value ([3]; 11 days, C, 6, F at 10 μM, Z at 100 nM, listed as 6) was “best effect enhancing both CD34+CD38- and CD34+ and CD38+ positive cells; also recorded: ability to enhance both the population of single positive (CD34+CD38−) and double positive (CD34+CD38+) cells; also recorded: the most effects on the CD34+CD38− population” and the “fold increase of CD34+CD41+ cells” value (bone marrow CD34+ cells; 4 days culture, flow cytometry) was 2 fold. The average cell size (bone marrow CD34+ cells; [5]) was “around 50 um”, the “cell size, largest” value (bone marrow CD34+ cells; [5]) was ≤ 90 μm and the “percentage of CD41 increased” value (bone marrow CD34+ cells; after 5 days of culture, 10 μM, N>3 experiments) was 50-100%. The “increase in the CD41+ population” value (bone marrow CD34+ cells; within 4 days of culture, flow cytometry) was ~100%.

Source: US20150250824A1, “METHODS AND COMPOSITIONS FOR EXPANSION OF STEM CELLS AND OTHER CELLS” (The Research Foundation For The State University Of New York, priority 2014, published 2015)
